From patent US9856279B2 (AGIOS PHARMACEUTICALS, INC, priority 2011, dated 2018) come the findings set out here.

Usually IC50 stands for the point on the concentration scale where inhibition reaches its midpoint.

Chain of IDH1 R132H (O75874 whole entry R132H): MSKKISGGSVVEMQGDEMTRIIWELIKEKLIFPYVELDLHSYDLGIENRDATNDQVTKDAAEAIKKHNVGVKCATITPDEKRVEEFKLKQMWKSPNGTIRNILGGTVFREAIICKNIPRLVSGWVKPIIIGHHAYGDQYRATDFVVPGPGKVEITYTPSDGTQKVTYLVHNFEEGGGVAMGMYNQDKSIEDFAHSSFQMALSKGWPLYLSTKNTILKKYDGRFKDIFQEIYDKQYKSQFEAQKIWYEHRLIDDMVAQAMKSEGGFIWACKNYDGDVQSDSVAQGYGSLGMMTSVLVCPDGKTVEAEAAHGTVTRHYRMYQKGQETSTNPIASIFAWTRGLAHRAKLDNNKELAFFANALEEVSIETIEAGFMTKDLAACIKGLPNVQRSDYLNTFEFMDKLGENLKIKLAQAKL

For the first assay, the target named is IDH1 R132H (Homo sapiens, UniProt O75874, R132H). The assay can be described thus: Assay for IDH1 R132H inhibitors (NADPH/aKG, resazurin detection). To be noted: Table 3; enzyme assay, 50 minutes at room temperature; read-out: IC50 (IDH1 R132H Inhibition). The assay is classed as biochemical. On the procedure:
Assays were conducted in a volume of 76 μl assay buffer (150 mM NaCl, 10 mM MgCl2, 20 mM Tris pH 7.5, 0.03% bovine serum albumin) as follows in a standard 384-well plate: To 25 ul of substrate mix (8 uM NADPH, 2 mM aKG), 1 μl of test compound was added in DMSO. The plate was centrifuged briefly, and then 25 μl of enzyme mix was added (0.2 μg/ml IDH1 R132H) followed by a brief centrifugation and shake at 100 RPM. The reaction was incubated for 50 minutes at room temperature, then 25 μl of detection mix (30 μM resazurin, […]) was added and the mixture further incubated for 5 minutes at room temperature. The conversion of resazurin to resorufin was detected by fluorescent spectroscopy at Ex544 Em590 c/o 590.
Turning to `COCCC(=O)N1CCN(c2nc(C(C)C)c(-c3ccncc3)cc2C#N)C[C@H]1C` [Compound 213, (R)-2-isopropyl-6-(4-(3-methoxypropanoyl)-3-methylpiperazin-1-yl)-3,4′-bipyridine-5-carbonitrile], the half-inhibitory concentration (IC50) was in the range of 1000 to 5000 nM. Turning to `COCCC(=O)N1CCN(c2nc(C(C)C)c(-c3ccc(Cl)cc3)cc2C#N)C[C@H]1C` [Compound 215, (R)-5-(4-chlorophenyl)-6-isopropyl-2-(4-(3-methoxypropanoyl)-3-methylpiperazin-1-yl)nicotinonitrile], the IC50 fell in the range of 1000 to 5000 nM.

In the case of `COCCC(=O)N1CCN(c2nc(C3CC3)c(-c3ccc4[nH]ccc4c3)cc2C#N)C[C@H]1C` [Compound 253, (R)-6-cyclopropyl-5-(1H-indol-5-yl)-2-(4-(3-methoxypropanoyl)-3-methylpiperazin-1-yl)nicotinonitrile], the IC50 is no more than 1000 nM. With `COCCC(=O)N1CCN(c2nc(C3CC3)c(-c3ccncc3)c(C)c2C#N)C[C@H]1C` [Compound 260, (R)-2-cyclopropyl-6-(4-(3-methoxypropanoyl)-3-methylpiperazin-1-yl)-4-methyl-3,4′-bipyridine-5-carbonitrile], the half-maximal inhibitory concentration (IC50) is no more than 1000 nM. Regarding `Cc1cccc(-c2cc(C#N)c(N3CCN(C(=O)c4ccco4)[C@H](C)C3)nc2C(C)C)c1` [Compound 190], the IC50 fell in the range of 5000 to 15000 nM. Take `Cc1ccc(-c2cc(C#N)c(N3CCN(C(=O)Cc4cccs4)[C@H](C)C3)nc2C(C)C)cc1` [Compound 181, (R)-6-isopropyl-2-(3-methyl-4-(2-(thiophen-2-yl)acetyl)piperazin-1-yl)-5-p-tolylnicotinonitrile]: the IC50 lay within 1000 to 5000 nM. Still for that read-out and setting: then `CC(C)c1cc(-c2cccc(F)c2)c(C#N)c(N2CCN(C(=O)c3c[nH]c4ccccc34)CC2)n1` [Compound 116, 2-(4-(1H-indole-3-carbonyl)piperazin-1-yl)-4-(3-fluorophenyl)-6-isopropylnicotinonitrile], with 5000 to 15000 nM; and `COCCC(=O)N1CCN(c2nc(C(C)C)c(-c3cccc(OC)c3)cc2C#N)C[C@H]1C` [Compound 212, (R)-6-isopropyl-5-(3-methoxyphenyl)-2-(4-(3-methoxypropanoyl)-3-methylpiperazin-1-yl)nicotinonitrile], with no more than 1000 nM; and `CC(C)c1nc(N2CCN(C(=O)c3ccoc3)[C@H](C(C)C)C2)c(C#N)cc1-c1ccc(C(F)(F)F)cc1` [Compound 195], with 1000 to 5000 nM.

`CC(=O)Oc1ccccc1-c1cc(C(C)C)nc(N2CCN(C(=O)c3ccoc3)[C@H](C)C2)c1C#N` [Compound 162, (R)-2-(3-cyano-2-(4-(furan-3-carbonyl)-3-methylpiperazin-1-yl)-6-isopropylpyridin-4-yl)phenylacetate]: the half-maximal inhibitory concentration (IC50) lay in the range of 1000 to 5000 nM. Still for that read-out and setting: then `COCCC(=O)N1CCN(c2nc(C3CC3)c(-c3cc4ccccc4s3)cc2C#N)C[C@H]1C` [Compound 247, (R)-5-(benzo[b]thiophen-2-yl)-6-cyclopropyl-2-(4-(3-methoxypropanoyl)-3-methylpiperazin-1-yl)nicotinonitrile], with 1000 to 5000 nM.

Regarding `COCCC(=O)N1CCN(c2nc(C(C)C)c(-c3cc4ccccc4o3)cc2C#N)C[C@H]1C` [Compound 209, (R)-5-(benzofuran-2-yl)-6-isopropyl-2-(4-(3-methoxypropanoyl)-3-methylpiperazin-1-yl)nicotinonitrile], the IC50 was 1000 to 5000 nM. Regarding `C[C@@H]1CN(c2nc(C3CCCCC3)cc(-c3ccccc3)c2C#N)C[C@H](C)N1C(=O)c1ccoc1` [Compound 142, 6-cyclohexyl-2-((3S,5R)-4-(furan-3-carbonyl)-3,5-dimethylpiperazin-1-yl)-4-phenylnicotinonitrile], the IC50 was 1000 to 5000 nM. Still for that read-out and setting: for `COCCC(=O)N1CCN(c2nc(C(C)C)c(-c3ccc(F)cc3)cc2C(=O)OC)C[C@H]1C` [Compound 244, (R)-methyl 5-(4-fluorophenyl)-6-isopropyl-2-(4-(3-methoxypropanoyl)-3-methylpiperazin-1-yl)nicotinate] the value was 1000 to 5000 nM; for `COCCC(=O)N1CCN(c2nc(C3CC3)c(-c3ccc4c(c3)OCO4)c(C)c2C#N)C[C@H]1C` [Compound 261, (R)-5-(benzo[d][1,3]dioxol-5-yl)-6-cyclopropyl-2-(4-(3-methoxypropanoyl)-3-methylpiperazin-1-yl)-4-methylnicotinonitrile], no more than 1000 nM.

Still in this assay, the particulars now being: enzyme assay of Example 12; read-out: IDH1R132H IC50.
On to `N#Cc1cc(-c2cccc3nc(Cl)ccc23)c(C2CC2)nc1N1CCN(C(=O)C2CC2)[C@H](C2CC2)C1` [Compound 549, (R)-5-(2-chloroquinolin-5-yl)-2-(4-(cyclopropanecarbonyl)-3-cyclopropylpiperazin-1-yl)-6-cyclopropylnicotinonitrile], for which the IC50 was less than 500 nM.

For the compound `N#Cc1cc(-c2cccc3c2NC(=O)C3=O)c(C2CC2)nc1N1CCN(C(=O)C2CC2)[C@H](C2CC2)C1` [Compound 513, (R)-2-(4-(cyclopropanecarbonyl)-3-cyclopropylpiperazin-1-yl)-6-cyclopropyl-5-(2,3-dioxoindolin-7-yl)nicotinonitrile], the IC50 fell in the range of 500 to 1000 nM. Take `C#Cc1cc(-c2cc(C#N)c(N3CCN(C(=O)C4CC4)[C@H](C)C3)nc2C2CC2)ccn1` [Compound 593, (R)-6-(4-(cyclopropanecarbonyl)-3-methylpiperazin-1-yl)-2-cyclopropyl-2′-ethynyl-3,4′-bipyridine-5-carbonitrile]: the IC50 lay in the range of 500 to 1000 nM. Take `COCCC(=O)N1CCN(c2nc(C3CC3)c(-c3cccc(N(C)C(=O)C(F)F)c3)cc2C#N)C[C@H]1C` [Compound 455]: the IC50 lay in the range of 500 to 1000 nM.

With `COCCC(=O)N1CCN(c2nc(C3CC3)c(OCc3cccc(N)c3)cc2C#N)C[C@H]1C` [Compound 341], the IC50 was less than 500 nM.

Take `CCc1ccccc1-c1c(C2CC2)nc(N2CCN(C(=O)CCOC)[C@H](C)C2)c(C#N)c1C` [Compound 359, (R)-6-cyclopropyl-5-(2-ethyl-phenyl)-2-[4-(3-methoxy-propionyl)-3-methyl-piperazin-1-yl]-4-methyl-nicotinonitrile]: the half-maximal inhibitory concentration (IC50) is less than 500 nM. On to `COCCC(=O)N1CCN(c2nc(C3CC3)c(-c3cc4ccccc4[nH]3)cc2C#N)C[C@H]1C` [Compound 394, (R)-6-cyclopropyl-5-(1H-indol-2-yl)-2-[4-(3-methoxy-propionyl)-3-methyl-piperazin-1-yl]-nicotinonitrile], for which the IC50 was in the range of 500 to 1000 nM.

With `C=Cc1ccnc(N(c2cc(C=C)ccn2)c2cc(C#N)c(N3CCN(C(=O)CCOC)[C@H](C)C3)nc2C2CC2)c1` [Compound 646, (R)-5-(bis(4-vinylpyridin-2-yl)amino)-6-cyclopropyl-2-(4-(3-methoxypropanoyl)-3-methylpiperazin-1-yl)nicotinonitrile], the IC50 is less than 500 nM. Same read-out and setting: then `COCCC(=O)N1CCN(c2nc(C3CC3)c(-c3cncc(C)c3)c(C)c2C#N)C[C@H]1C` [Compound 318], with less than 500 nM; and `C=CC(=O)N1CC=C(c2cc(C#N)c(N3CCN(C(=O)C4CC4)[C@H](C)C3)nc2C2CC2)CC1` [Compound 630, (R)-5-(1-acryloyl-1,2,3,6-tetrahydropyridin-4-yl)-2-(4-(cyclopropanecarbonyl)-3-methylpiperazin-1-yl)-6-cyclopropylnicotinonitrile], with 500 to 1000 nM; and `N#Cc1cc(-c2cccnc2)c(C2CC2)nc1N1CCN(C(=O)CC(F)(F)F)[C@H](C2CC2)C1` [Compound 524, (R)-2-cyclopropyl-6-(3-cyclopropyl-4-(3,3,3-trifluoropropanoyl)piperazin-1-yl)-[3,3′-bipyridine]-5-carbonitrile], with less than 500 nM.

For the compound `COCCC(=O)N1CCN(c2nc(C3CC3)c(-c3ccc4[nH]cc(C(=O)C(F)(F)F)c4c3)cc2C#N)C[C@H]1C` [Compound 317, (R)-6-cyclopropyl-2-(4-(3-methoxypropanoyl)-3-methylpiperazin-1-yl)-5-(3-(2,2,2-trifluoroacetyl)-1H-indol-5-yl)nicotinonitrile], the IC50 lay within 500 to 1000 nM. On to `COCCC(=O)N1CCN(c2nc(C3CC3)c(-c3ccnc(OS(=O)(=O)C(F)(F)F)c3)cc2C#N)C[C@H]1C` [Compound 779, (R)-5-cyano-2-cyclopropyl-6-(4-(3-methoxypropanoyl)-3-methylpiperazin-1-yl)-[3,4′-bipyridin]-2′-yl trifluoromethanesulfonate], for which the IC50 is 1000 to 10000 nM. On the same count and under the same terms, for `N#Cc1cc(-c2cc(Cl)nc3ccccc23)c(C2CC2)nc1N1CCN(C(=O)C2CC2)[C@H](C2CC2)C1` [Compound 543, (R)-5-(2-chloroquinolin-4-yl)-2-(4-(cyclopropanecarbonyl)-3-cyclopropylpiperazin-1-yl)-6-cyclopropylnicotinonitrile] the value was 500 to 1000 nM; for `COCCC(=O)N1CCN(c2nc(C3CC3)c(N3CCOCC3)cc2C#N)C[C@H]1C` [Compound 375, (R)-6-cyclopropyl-2-(4-(3-methoxypropanoyl)-3-methylpiperazin-1-yl)-5-morpholinonicotinonitrile], 500 to 1000 nM. Take `CNC(=O)c1cccc(-c2c(C3CC3)nc(N3CCN(C(=O)CCOC)[C@H](C)C3)c(C#N)c2C)c1` [Compound 327, (R)-3-{5-cyano-2-cyclopropyl-6-[4-(3-methoxy-propionyl)-3-methyl-piperazin-1-yl]-4-methyl-pyridin-3-yl}-N-methyl-benzamide]: the 50% inhibitory concentration (IC50) fell in the range of 500 to 1000 nM. Still for that read-out and setting: for `N#Cc1cc(-c2cnc3cnccn23)c(C2CC2)nc1N1CCN(C(=O)C2CC2)[C@H](C2CC2)C1` [Compound 503, (R)-2-(4-(cyclopropanecarbonyl)-3-cyclopropylpiperazin-1-yl)-6-cyclopropyl-5-(imidazo[1,2-a]pyrazin-3-yl)nicotinonitrile] the value was less than 500 nM.
